For one assay, the target named is T1, muscarinic M2 receptors (Rattus norvegicus, UniProt P10980).
T1 sequence (P10980 1-466): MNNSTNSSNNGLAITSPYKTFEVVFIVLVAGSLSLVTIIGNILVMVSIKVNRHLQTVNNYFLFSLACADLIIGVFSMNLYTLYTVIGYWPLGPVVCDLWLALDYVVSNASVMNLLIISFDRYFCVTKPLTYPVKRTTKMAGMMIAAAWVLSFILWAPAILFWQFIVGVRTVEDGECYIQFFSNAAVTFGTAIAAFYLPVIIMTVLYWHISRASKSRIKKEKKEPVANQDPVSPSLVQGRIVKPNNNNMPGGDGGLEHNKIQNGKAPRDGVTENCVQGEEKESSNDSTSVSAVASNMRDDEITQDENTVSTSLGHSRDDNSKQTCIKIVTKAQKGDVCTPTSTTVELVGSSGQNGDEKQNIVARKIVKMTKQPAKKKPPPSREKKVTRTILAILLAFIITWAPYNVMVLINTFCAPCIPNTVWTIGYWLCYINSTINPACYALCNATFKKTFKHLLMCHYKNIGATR
Briefly: biochemical. In kind it is binding, Wistar male rats.

A further assay concerns the target T2, Muscarinic M3 receptor (Rattus norvegicus, UniProt P08483).
T2 construct: except that submandibular gland membranes were used and [^3H]-N-methylscopolamine was used as the labeled ligand; from tissue; host or cells: rat submandibular gland membranes (Wistar male rats, Nippon SLC)
Briefly: Muscarinic M3 receptor binding test (submandibular gland membranes, [3H]-N-methylscopolamine). Details: species or system Wistar male rats.

For assay [1], the system named is rhythmic bladder contraction in rat. Briefly: Test on rhythmic bladder contraction in rat (in vivo muscarinic antagonism). Details: species or system Wistar female rats.
Assay [2] relates to salivary secretion in rat. Briefly: Test on salivary secretion in rat (oxotremorine-induced). In kind it is in vivo, Male Wistar rats.
Assay [3] has as its system bronchospasm in guinea pig. In kind it is in vivo, Hartley male guinea pig.
The mark [4] stands for this setting: read-out: Ki (nM) M2 binding Test.
Setting [5] is: rat submandibular gland membranes, [3H]-N-methylscopolamine, read-out: Ki (nM) M3 binding Test.
Setting [6] is: urethane anesthesia, cumulative i.v. administration, 30% inhibition of peak bladder contractions.
Setting [7] is: oxotremorine 0.8 µmol/kg 15 minutes after compound, saliva of 5 minutes.
Setting [8] is: methacholine 5 µg/kg i.v., 3 minutes after compound i.v.

Like-named read-outs stand apart in the source and are kept apart here.

The source of these data is patent EP0747355A1, “NOVEL CARBAMATE DERIVATIVE AND MEDICINAL COMPOSITION CONTAINING THE SAME” (priority 1994, dated 1995).

Broadly, the Ki is a dissociation constant, usually derived from enzyme kinetics or from competition with a known ligand.

T2 sequence (P08483 whole entry): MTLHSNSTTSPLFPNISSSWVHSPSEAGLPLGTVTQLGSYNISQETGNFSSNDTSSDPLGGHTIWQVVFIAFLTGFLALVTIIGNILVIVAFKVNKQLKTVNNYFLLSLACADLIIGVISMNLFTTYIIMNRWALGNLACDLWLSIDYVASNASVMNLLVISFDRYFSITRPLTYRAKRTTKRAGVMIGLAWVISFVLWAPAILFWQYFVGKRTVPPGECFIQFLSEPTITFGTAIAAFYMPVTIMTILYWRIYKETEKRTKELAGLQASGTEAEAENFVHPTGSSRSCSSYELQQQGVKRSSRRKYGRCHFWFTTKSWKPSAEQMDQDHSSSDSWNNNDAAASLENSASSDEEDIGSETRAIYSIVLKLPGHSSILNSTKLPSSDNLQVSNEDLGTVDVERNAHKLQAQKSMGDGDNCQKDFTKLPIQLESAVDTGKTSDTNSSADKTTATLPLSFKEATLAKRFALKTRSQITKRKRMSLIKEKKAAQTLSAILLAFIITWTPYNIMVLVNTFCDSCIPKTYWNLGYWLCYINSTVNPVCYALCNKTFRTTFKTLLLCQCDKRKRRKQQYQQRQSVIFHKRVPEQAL

On to “3-quinuclidinyl N-[2-(1H-pyrrol-1-yl)phenyl]carbamate monohydrochloride [Example 2]”, for which the figures for the Ki on muscarinic M2 receptors (setting [4]) and on Muscarinic M3 receptor (setting [5]) were 100 nM and 4.89 nM, respectively. On Muscarinic M3 receptor (ratio of Ki M2 to Ki M3), the M2/M3 amounted to 20.4. Also, in assay [1] (setting [6]), the “Rhythmic Bladder Contraction Test ED30 (mg/kg i.v.)” value is on record as 0.018 mg/kg i.v. For the same compound, the “Salivary Secretion Test ED50 (mg/kg i.v.)” value (shortened to “Salivary Secretion Test ED50”) in assay [2] (setting [7]) stood at 0.11 mg/kg i.v.

Take `Cl.O=C(Nc1ccccc1-c1ccccc1)OC1CN2CCC1CC2` (centres unmarked) [Example 1, 3-quinuclidinyl N-(2-biphenylyl)carbamate monohydrochloride]: the Ki on muscarinic M2 receptors was determined as 25.9 nM; on Muscarinic M3 receptor, 0.94 nM. Besides, the M2/M3 on Muscarinic M3 receptor (ratio of Ki M2 to Ki M3) amounted to 27.6. For the same compound, in assay [3] (setting [8]), the “Bronchospasm Test ID50 (mg/kg i.v.)” value is 0.0045 mg/kg i.v.

In the case of “3-Quinuclidinyl N-[2-(2-cyclohexen-1-yl)phenyl]carbamate hemioxalate [Example 61]”, the “Rhythmic Bladder Contraction Test ED30 (mg/kg i.v.)” value in assay [1] (setting [6]) came out at 0.029 mg/kg i.v. The “Salivary Secretion Test ED50” value in assay [2] (setting [7]) stood at 0.14 mg/kg i.v.

For the compound `CCN(CC)CC#CCOC(=O)C(O)(c1ccccc1)C1CCCCC1` (centres unmarked) [Oxybutynin, reference compound], in assay [1] (setting [6]), the “Rhythmic Bladder Contraction Test ED30 (mg/kg i.v.)” value is 0.24 mg/kg i.v. Also, the “Salivary Secretion Test ED50” value in assay [2] (setting [7]) worked out at 0.18 mg/kg i.v.

Consider `CN1[C@@H]2CC[C@H]1C[C@@H](OC(=O)C(CO)c1ccccc1)C2` (some centres unmarked) [Atropine, reference compound], for which the “Bronchospasm Test ID50 (mg/kg i.v.)” value in assay [3] (in vivo, iv) is recorded as 0.0008 mg/kg i.v. In addition, the “Rhythmic Bladder Contraction Test ED30 (mg/kg i.v.)” value in assay [1] (in vivo, iv) stood at 0.009 mg/kg i.v. Also, the “Salivary Secretion Test ED50” value in assay [2] (in vivo, iv) came out at 0.0084 mg/kg i.v.

On to `O=C(Nc1ccccc1-c1ccccc1)OC1CCN(Cc2cccc(O)c2)CC1.O=C(O)C(=O)O` [Example 15, 1-(3-Hydroxybenzyl)-4-piperidyl N-(2-biphenylyl)carbamate monooxalate], for which the “Rhythmic Bladder Contraction Test ED30 (mg/kg i.v.)” value in assay [1] (setting [6]) is recorded as 0.058 mg/kg i.v. In addition, the “Salivary Secretion Test ED50” value in assay [2] (setting [7]) amounted to 0.36 mg/kg i.v.

On to `C[N+]1(C)CCC(OC(=O)Nc2ccccc2-c2ccccc2)CC1.[I-]` [Example 7, 4-[[N-(2-biphenylyl)carbamoyl]oxy]-1,1-dimethylpiperidinium iodide], for which the Ki at muscarinic M2 receptors (setting [4]) was found to be 14.7 nM; on Muscarinic M3 receptor (setting [5]), 0.57 nM. For the same compound, the M2/M3 at Muscarinic M3 receptor (ratio of Ki M2 to Ki M3) is 25.8. Moreover, in assay [3] (in vivo, iv), the “Bronchospasm Test ID50 (mg/kg i.v.)” value amounted to 0.0054 mg/kg i.v.

At muscarinic M2 receptors, `Cl.O=C(Nc1ccccc1-c1ccccc1)OC12CCN(CC1)CC2` [Example 4, 4-quinuclidinyl N-(2-biphenylyl)carbamate monohydrochloride] gave a Ki of 5.89 nM. Further, at Muscarinic M3 receptor, the affinity, expressed as Ki, was 0.39 nM and the M2/M3 was determined as 15.2. For the same compound, in assay [3] (in vivo, iv), the “Bronchospasm Test ID50 (mg/kg i.v.)” value is recorded as 0.0082 mg/kg i.v. For the same compound, in assay [1] (in vivo, iv), the “Rhythmic Bladder Contraction Test ED30 (mg/kg i.v.)” value is recorded as 0.014 mg/kg i.v. Moreover, the “Salivary Secretion Test ED50” value in assay [2] (in vivo, iv) amounted to 0.10 mg/kg i.v.

Turning to `C[N+]12CCC(CC1)C(OC(=O)Nc1ccccc1-c1ccccc1)C2.[I-]` (centres unmarked) [Example 3, 3-[[N-(2-biphenylyl)carbamoyl]oxy]-1-methylquinuclidinium iodide], the Ki at muscarinic M2 receptors was 14.4 nM; at Muscarinic M3 receptor, 0.56 nM. Moreover, the M2/M3 on Muscarinic M3 receptor (ratio of Ki M2 to Ki M3) came out at 25.7. The “Bronchospasm Test ID50 (mg/kg i.v.)” value in assay [3] (setting [8]) was 0.0038 mg/kg i.v.
